Reference: US20070237756A1, “Antimicrobial preparations” (PURAC BIOCHEM B.V., priority 2006, published 2007)

Key:
[1] = test system: Salmonella typhimurium ATCC 13311; assay: Growth in inoculated milk at 12° C., plate count; type: cell-based; details: non-fat milk; for CFU/ml, day 0: 0 days; for CFU/ml, day 2: 2 days; for CFU/ml, day 4: 4 days; for CFU/ml, day 6: 6 days
Experimental: Stock cultures of Salmonella typhimurium ATCC 13311 and Escherichia coli O157:H7 ATCC 700728 which were used to inoculate liquid cultures were routinely kept on agar plates containing brain heart infusion (Oxoid CM225, Basingstoke, United Kingdom) fortified with 1.5% agar. […] Just prior to the inoculation of the foods the cultures were diluted with a solution containing 0.1% peptone and 0.85% NaCl.
Sterile non-fat milk was obtained from a local supermarket. Appropriate quantities of amino acids were added.
Milk was cooled to 10° C. and subsequently inoculated with an appropriately diluted culture of Salmonella typhimurium. Inoculated milk samples were incubated at 12° C.
The microbial analysis of the food samples was done as follows: A sealing bag was opened and to this were added 2 times the net weight of sterile dilution fluid ([…] and 0.1% (w/v) bacteriological peptone). Samples were homogenized for 1 min in a Stomacher 400 lab blender (Seward Medical, London, England) and 50 μl of the homogenate were plated on a suitable agar medium using an Eddyjet type 1.23 spiral plater (IUL Instruments, Barcelona, Spain). Escherichia coli 0157:H7 and Salmonella typhimurium were plated on VRBG agar (Oxoid, CM0485, Basingstoke, United Kingdom). Plates were incubated for 24 hours at 30° C. and then counted.
The effect of single additions of glycine, DL-alanine and a mixture of glycine (0.67%) and DL-alanine (0.8%) on the growth of Salmonella typhimurium in milk at 12° C. is given in Table I: […]

[2] = test system: Salmonella enterica (ATCC 13311); details: broth cultures, to a concentration of 100 mM, single amino acid

| Compound | CFU/ml, day 0 [1] | CFU/ml, day 2 [1] | CFU/ml, day 4 [1] | CFU/ml, day 6 [1] | effect on the growth rate of Salmonella typhimurium [2] |
| --- | --- | --- | --- | --- | --- |
| CC(N)C(=O)O (racemic) [DL-alanine] | 5 · 10^3 CFU/ml | 5 · 10^4 CFU/ml | 4 · 10^5 CFU/ml | 1 · 10^5 CFU/ml | little or no effect |
| NCC(=O)O [glycine] | 5 · 10^3 CFU/ml | 5 · 10^4 CFU/ml | 1 · 10^5 CFU/ml | 8 · 10^4 CFU/ml | little or no effect |
